{
  "source": "PubChem BioAssay (NCI)",
  "test_in_all_cases": "NCI-60 cell line screen, 48 h",
  "key": {"[1]": {"tested_on": "NCI-H522 lung"}, "[2]": {"tested_on": "NCI-H460 lung"}, "[3]": {"tested_on": "NCI-H226 lung"}, "[4]": {"tested_on": "HCT-15 colon"}, "[5]": {"tested_on": "HOP-62 NSCLC"}, "[6]": {"tested_on": "OVCAR-4 ovarian"}, "[7]": {"tested_on": "SNB-19 CNS"}, "[8]": {"tested_on": "DLD-1 colon"}, "[9]": {"tested_on": "DMS 273 small cell lung"}, "[10]": {"tested_on": "COLO 205 colon"}, "[11]": {"tested_on": "A549 NSCLC"}, "[12]": {"tested_on": "M14 melanoma"}, "[13]": {"tested_on": "SR leukemia"}, "[14]": {"tested_on": "HCC-2998 colon"}, "[15]": {"tested_on": "SK-MEL-5 melanoma"}, "[16]": {"tested_on": "OVCAR-5 ovarian"}, "[17]": {"tested_on": "ACHN renal"}, "[18]": {"tested_on": "LOX IMVI melanoma"}, "[19]": {"tested_on": "SF-268 CNS"}, "[20]": {"tested_on": "SK-MEL-2 melanoma"}, "[21]": {"tested_on": "LXFL 529 NSCLC"}, "[22]": {"tested_on": "SN12C renal"}, "[23]": {"tested_on": "OVCAR-3 ovarian"}, "[24]": {"tested_on": "EKVX NSCLC"}, "[25]": {"tested_on": "SW-620 colon"}, "[26]": {"tested_on": "786-0 renal"}, "[27]": {"tested_on": "HT29 colon"}, "[28]": {"tested_on": "NCI-H23 lung"}, "[29]": {"tested_on": "RPMI-8226 leukemia"}, "[30]": {"tested_on": "SK-OV-3 ovarian"}, "[31]": {"tested_on": "XF 498 CNS"}, "[32]": {"tested_on": "UACC-257 melanoma"}, "[33]": {"tested_on": "RXF 393 renal"}, "[34]": {"tested_on": "MOLT-4 leukemia"}, "[35]": {"tested_on": "KM12 colon"}, "[36]": {"tested_on": "SK-MEL-28 melanoma"}, "[37]": {"tested_on": "M19-MEL melanoma"}, "[38]": {"tested_on": "TK-10 renal"}, "[39]": {"tested_on": "CCRF-CEM leukemia"}, "[40]": {"tested_on": "HL-60(TB) leukemia"}, "[41]": {"tested_on": "SF-295 CNS"}, "[42]": {"tested_on": "U251 CNS"}, "[43]": {"tested_on": "HCT-116 colon"}, "[44]": {"tested_on": "MALME-3M melanoma"}, "[45]": {"tested_on": "UACC-62 melanoma"}, "[46]": {"tested_on": "KM20L2 colon"}, "[47]": {"tested_on": "DMS 114 small cell lung"}, "[48]": {"tested_on": "CAKI-1 renal"}, "[49]": {"tested_on": "IGROV1 ovarian"}, "[50]": {"tested_on": "K-562 leukemia"}, "[51]": {"tested_on": "OVCAR-8 ovarian"}, "[52]": {"tested_on": "UO-31 renal"}},
  "note": "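The compound was tested at five concentrations on cells cultured in 96-well plates, with a 48-hour exposure period. TGI denotes the concentration required for complete inhibition of growth.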",
  "data": [
    {"smiles": "O=C(/C=N/O)Nc1ccc(Cl)c(I)c1", "values": [
      {"measurement": "TGI", "setting": "[1]", "value": 34.6, "unit": "µM"},
      {"measurement": "TGI", "setting": "[2]", "value": 47.2, "unit": "µM"},
      {"measurement": "TGI", "setting": "[3]", "value": 17.8, "unit": "µM"},
      {"measurement": "TGI", "setting": "[4]", "value": 63.9, "unit": "µM"},
      {"measurement": "TGI", "setting": "[5]", "value": 70.7, "unit": "µM"},
      {"measurement": "TGI", "setting": "[6]", "value": "> 100", "unit": "µM"},
      {"measurement": "TGI", "setting": "[7]", "value": 83.9, "unit": "µM"},
      {"measurement": "TGI", "setting": "[8]", "value": "> 100", "unit": "µM"},
      {"measurement": "TGI", "setting": "[9]", "value": 41.9, "unit": "µM"},
      {"measurement": "TGI", "setting": "[10]", "value": 31.7, "unit": "µM"},
      {"measurement": "TGI", "setting": "[11]", "value": 94, "unit": "µM"},
      {"measurement": "TGI", "setting": "[12]", "value": 43.7, "unit": "µM"},
      {"measurement": "TGI", "setting": "[13]", "value": 61.2, "unit": "µM"},
      {"measurement": "TGI", "setting": "[14]", "value": 33.7, "unit": "µM"},
      {"measurement": "TGI", "setting": "[15]", "value": 35.2, "unit": "µM"},
      {"measurement": "TGI", "setting": "[16]", "value": 62.2, "unit": "µM"},
      {"measurement": "TGI", "setting": "[17]", "value": 85.2, "unit": "µM"},
      {"measurement": "TGI", "setting": "[18]", "value": 31.4, "unit": "µM"},
      {"measurement": "TGI", "setting": "[19]", "value": 69.2, "unit": "µM"},
      {"measurement": "TGI", "setting": "[20]", "value": 31.3, "unit": "µM"},
      {"measurement": "TGI", "setting": "[21]", "value": 42.1, "unit": "µM"},
      {"measurement": "TGI", "setting": "[22]", "value": 63.9, "unit": "µM"},
      {"measurement": "TGI", "setting": "[23]", "value": 60.3, "unit": "µM"},
      {"measurement": "TGI", "setting": "[24]", "value": 63.9, "unit": "µM"},
      {"measurement": "TGI", "setting": "[25]", "value": "> 100", "unit": "µM"},
      {"measurement": "TGI", "setting": "[26]", "value": 88.4, "unit": "µM"},
      {"measurement": "TGI", "setting": "[27]", "value": "> 100", "unit": "µM"},
      {"measurement": "TGI", "setting": "[28]", "value": 42.3, "unit": "µM"},
      {"measurement": "TGI", "setting": "[29]", "value": 77.8, "unit": "µM"},
      {"measurement": "TGI", "setting": "[30]", "value": 56, "unit": "µM"},
      {"measurement": "TGI", "setting": "[31]", "value": 64.8, "unit": "µM"},
      {"measurement": "TGI", "setting": "[32]", "value": "> 100", "unit": "µM"},
      {"measurement": "TGI", "setting": "[33]", "value": 46.7, "unit": "µM"},
      {"measurement": "TGI", "setting": "[34]", "value": 56.5, "unit": "µM"},
      {"measurement": "TGI", "setting": "[35]", "value": 68.3, "unit": "µM"},
      {"measurement": "TGI", "setting": "[36]", "value": 72.6, "unit": "µM"},
      {"measurement": "TGI", "setting": "[37]", "value": 60.9, "unit": "µM"},
      {"measurement": "TGI", "setting": "[38]", "value": "> 100", "unit": "µM"},
      {"measurement": "TGI", "setting": "[39]", "value": 94.8, "unit": "µM"},
      {"measurement": "TGI", "setting": "[40]", "value": 54.1, "unit": "µM"},
      {"measurement": "TGI", "setting": "[41]", "value": 94.8, "unit": "µM"},
      {"measurement": "TGI", "setting": "[42]", "value": 39.4, "unit": "µM"},
      {"measurement": "TGI", "setting": "[43]", "value": 25.5, "unit": "µM"},
      {"measurement": "TGI", "setting": "[44]", "value": 64.2, "unit": "µM"},
      {"measurement": "TGI", "setting": "[45]", "value": 35.4, "unit": "µM"},
      {"measurement": "TGI", "setting": "[46]", "value": "> 100", "unit": "µM"},
      {"measurement": "TGI", "setting": "[47]", "value": 50, "unit": "µM"},
      {"measurement": "TGI", "setting": "[48]", "value": 45.2, "unit": "µM"},
      {"measurement": "TGI", "setting": "[49]", "value": 39.2, "unit": "µM"},
      {"measurement": "TGI", "setting": "[50]", "value": "> 100", "unit": "µM"},
      {"measurement": "TGI", "setting": "[51]", "value": "> 100", "unit": "µM"},
      {"measurement": "TGI", "setting": "[52]", "value": 33.1, "unit": "µM"}
    ]}
  ]
}
